Marks after values point to notes of the source that are not given here.
What was measured:
GIP receptor = target: T1, GIP receptor (Homo sapiens, UniProt P48546); experiment: cAMP experiment, GIP receptor (CHO host cell line); assay type: cell-based; details: CHO host cells
T1 construct: expressed in transfected cells; host or cells: CHO cell line
T1 sequence (P48546 22-466): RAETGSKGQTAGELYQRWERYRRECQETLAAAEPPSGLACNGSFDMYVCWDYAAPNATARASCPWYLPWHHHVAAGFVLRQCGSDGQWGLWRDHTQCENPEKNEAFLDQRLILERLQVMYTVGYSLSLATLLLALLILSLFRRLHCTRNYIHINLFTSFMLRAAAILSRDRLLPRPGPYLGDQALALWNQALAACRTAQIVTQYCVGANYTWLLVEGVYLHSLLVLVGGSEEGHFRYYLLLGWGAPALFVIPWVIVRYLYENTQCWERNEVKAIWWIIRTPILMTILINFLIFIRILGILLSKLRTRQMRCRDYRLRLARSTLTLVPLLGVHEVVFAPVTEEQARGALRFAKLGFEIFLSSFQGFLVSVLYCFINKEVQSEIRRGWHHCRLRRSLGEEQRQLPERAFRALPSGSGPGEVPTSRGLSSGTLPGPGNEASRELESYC

db/db mice [1] = experiment: Hypoglycemic effect of BG121 and BG128 in db/db mice (Experimental Example 2); assay type: in vivo; details: for glycosylated hemoglobin content in serum vs solvent control / insulin content in serum vs solvent control: 25 days after administration; for glycosylated hemoglobin content in serum vs solvent control: FIG. 6; for insulin content in serum vs solvent control: FIG. 7; for body weight vs solvent control: day 4, 7, 10, 13, 16, 19, 22, FIG. 5; for non-fasting blood glucose vs solvent control: FIG. 3
Procedure: Germline: BKS mice (db/db mice); source: Gempharmatech Co., Ltd.; license key: SCXK (SU) 2018-0008; certificate number: 202100117; grade: SPF; number: 32; gender: male; age: 8 weeks (at the beginning of modeling); animal identification: ear tag.
Feeding conditions: temperature: 22±2° C.; humidity: 40%-70%; lighting: artificial lighting simulates day and night changes; drinking water: free to drink; feed: mouse breeding feed, wherein the mice were fasted overnight before determining fasting blood sugar, and the mice were free to eat for the rest of the time.
Formulation of BG128 (1 mg/ml) stock solution: a certain amount of BG128 was weighed, an appropriate volume of solvent (20 mM citric acid, pH 7.0) was added, and the mixture was sub-packaged at 100 μl/tube and frozen at −80° C. for later use;
BG128 (0.0151 mg/ml, for 30 nmol/kg administration): 90 μL of the 1 mg/mL stock solution was taken and added to a 10 mL EP together with 810 μL of the solvent, the mixture was homogeneously mixed in a vortex mixer, then 5044 μL of the solvent was added, and the mixture was homogeneously mixed in a vortex mixer and used up on the same day;
BG128 (0.0050 mg/ml, for 10 nmol/kg administration): 2 mL of BG128 ([…]) were taken, and 4 mL of the solvent was added, and the mixture was homogeneously mixed in a vortex mixer and used up on the same day.
32 SPF-grade male BKS-DB mice (db/db mice) were fed adaptively for 1 week. […] During the experiment, the experimenters need to observe the signs and health conditions of the experimental animals. Any abnormal manifestations of animals, such as pain, depression, decreased activity, etc., should be recorded in the original experimental records. If the abnormal manifestations of the experimental animals exceed the regulations in relevant documents for animal welfare, the animal can be euthanized after being notified.
Modeling method: db/db mice would develop spontaneous type 2 diabetes after being fed for 6 weeks, and the mice would develop symptoms, such as obesity, insulin resistance and hyperglycemia;
Mode of administration: it was intended to use subcutaneous injection by the clinical route of administration, the volume of administration is: 10 mL/kg, once every 3 days, for 22 consecutive days;
Fasting blood glucose determination: according to the above-mentioned animal grouping and administration dose, the fasting blood glucose of the mice was determined two days before the first administration and the body weight was determined. […] The fasting blood glucose levels were determined on day 7, 13, 19, and 25 after the first administration (changing the bedding and fasting before the fasting blood glucose determination), and the mice were fasted;
Non-fasting blood glucose determination: the blood glucose was determined at time points of 1, 3, 6, 24, 48, and 72 hours after the first administration;
Body weight determination: determined twice a week;
Food intake determination: determined twice a week.
After 25 days of administration, blood samples were collected by picking the eyeballs, and the serum insulin and glycosylated hemoglobin contents of the mice were determined respectively.
All reported determination data was calculated using GraphPad prism8.0 software for group mean and standard deviation.

db/db mice [2] = experiment: Inhibitory effect of BG128 on hyperglycemia in db/db mice (Experimental Example 3); assay type: in vivo; details: for Insulin in serum: 3 days after the last administration; for Insulin in serum / Fasting blood glucose: n = 11; for non-fasting blood glucose after the first administration: FIG. 11
[3] = 10 nmol/kg s.c. once every 3 days
[4] = 30 nmol/kg s.c. once every 3 days
[5] = 0.05 mg/kg s.c. once every three days, anticoagulated whole blood, end of experiment, Mean ± SEM

CNC(CCCCNC(=O)COCCOCCOCCNC(=O)COCCOCCOCCNC(=O)CCC(NC(=O)CC(=O)O)C(=O)O)C(N)=O (stereo not shown) [BG128]
EC50 (GIP receptor): 278 pM
glycosylated hemoglobin content in serum vs solvent control (db/db mice [1]; [3]): no significant difference
insulin content in serum vs solvent control (db/db mice [1]; [3]): significantly lower than that in the solvent control group
body weight vs solvent control (db/db mice [1]; [3]): no significant difference
non-fasting blood glucose vs solvent control (db/db mice [1]; 10 nmol/kg s.c., 1, 3, 6, 24, 48 and 72 h after first administration): reduce the blood glucose at each time point after the administration in a dose dependent manner
glycosylated hemoglobin content in serum vs solvent control (db/db mice [1]; [4]): significantly lower than that in the BG121 (30 nmol/kg) administration group and the solvent control group
insulin content in serum vs solvent control (db/db mice [1]; [4]): significantly lower than that in the solvent control group
body weight vs solvent control (db/db mice [1]; [4]): significantly lower than that in the solvent control group and the BG121 (30 nmol/kg) administration group
fasting blood glucose vs solvent control (db/db mice [1]; 30 nmol/kg s.c. once every 3 days, day 19 and 25 after first administration, FIG. 4): significantly reduce the fasting blood glucose level
non-fasting blood glucose vs solvent control (db/db mice [1]; 30 nmol/kg s.c., 1, 3, 6, 24, 48 and 72 h after first administration): reduce the blood glucose at each time point after the administration in a dose dependent manner
Insulin in serum (db/db mice [2]; 0.05 mg/kg s.c. once every three days, Mean ± SD): 37649.0 ± 3597.0ª nIU/mL
Fasting blood glucose (db/db mice [2]; 0.05 mg/kg s.c. once every three days, Day 0 (before administration, baseline), Mean ± SD): 23.18 ± 1.15 mmol/L
Fasting blood glucose (db/db mice [2]; 0.05 mg/kg s.c. once every three days, Day 7, Mean ± SD): 21.68 ± 1.77^b mmol/L
Fasting blood glucose (db/db mice [2]; 0.05 mg/kg s.c. once every three days, Day 13, Mean ± SD): 21.68 ± 1.11 mmol/L
Fasting blood glucose (db/db mice [2]; 0.05 mg/kg s.c. once every three days, Day 19, Mean ± SD): 24.30 ± 1.41^c mmol/L
Fasting blood glucose (db/db mice [2]; 0.05 mg/kg s.c. once every three days, Day 25, Mean ± SD): 18.32 ± 1.37^c mmol/L
Fasting blood glucose (db/db mice [2]; 0.05 mg/kg s.c. once every three days, Day 31, Mean ± SD): 20.15 ± 1.91^c mmol/L
HbA1C (db/db mice [2]; [5]): 5.18 ± 0.23
HbA1C% (db/db mice [2]; [5]): 4.07 ± 0.13ª %
Insulin in serum (db/db mice [2]; 0.15 mg/kg s.c. once every three days, Mean ± SD): 30897.0 ± 5634.0^a nIU/mL
Fasting blood glucose (db/db mice [2]; 0.15 mg/kg s.c. once every three days, Day 0 (before administration, baseline), Mean ± SD): 23.17 ± 1.19 mmol/L
Fasting blood glucose (db/db mice [2]; 0.15 mg/kg s.c. once every three days, Day 7, Mean ± SD): 22.78 ± 1.11^a mmol/L
Fasting blood glucose (db/db mice [2]; 0.15 mg/kg s.c. once every three days, Day 13, Mean ± SD): 21.58 ± 1.13 mmol/L
Fasting blood glucose (db/db mice [2]; 0.15 mg/kg s.c. once every three days, Day 19, Mean ± SD): 26.14 ± 1.05^b mmol/L
Fasting blood glucose (db/db mice [2]; 0.15 mg/kg s.c. once every three days, Day 25, Mean ± SD): 15.70 ± 1.50^c mmol/L
Fasting blood glucose (db/db mice [2]; 0.15 mg/kg s.c. once every three days, Day 31, Mean ± SD): 20.38 ± 1.87^c mmol/L
HbA1C% (db/db mice [2]; 0.15 mg/kg s.c. once every three days, anticoagulated whole blood, end of experiment, Mean ± SEM): 4.04 ± 0.14ª %
Insulin in serum (db/db mice [2]; 0.5 mg/kg s.c. once every three days, Mean ± SD): 32774.0 ± 6290.0^a nIU/mL
Fasting blood glucose (db/db mice [2]; 0.5 mg/kg s.c. once every three days, Day 0 (before administration, baseline), Mean ± SD): 22.99 ± 1.35 mmol/L
Fasting blood glucose (db/db mice [2]; 0.5 mg/kg s.c. once every three days, Day 7, Mean ± SD): 15.54 ± 1.49^c mmol/L
Fasting blood glucose (db/db mice [2]; 0.5 mg/kg s.c. once every three days, Day 13, Mean ± SD): 16.79 ± 1.20^c mmol/L
Fasting blood glucose (db/db mice [2]; 0.5 mg/kg s.c. once every three days, Day 19, Mean ± SD): 13.26 ± 1.91^c mmol/L
Fasting blood glucose (db/db mice [2]; 0.5 mg/kg s.c. once every three days, Day 25, Mean ± SD): 11.85 ± 1.74^c mmol/L
Fasting blood glucose (db/db mice [2]; 0.5 mg/kg s.c. once every three days, Day 31, Mean ± SD): 16.41 ± 1.68^c mmol/L
non-fasting blood glucose after the first administration (db/db mice [2]; BG128 dose groups 0.05, 0.15, 0.5 mg/kg s.c., 0-72 h): decreased rapidly within 24 h after the first administration
body weight during the first administration (db/db mice [2]; Tirzepatide 0.15 mg/kg, BG128 0.05, 0.15, 0.5 mg/kg s.c., FIG. 8 and 9): positively correlated with the administration dose
food intake after the first administration vs db/db-ND group (db/db mice [2]; Tirzepatide 0.15 mg/kg, BG128 0.05, 0.15, 0.5 mg/kg s.c., FIG. 10): positively correlated with the administration dose
animal body weight loss rate compared with Tirzepatide (db/db mice [2]; equal dose (0.15 mg/kg s.c.), FIG. 8 and 9): better than that of Tirzepatide administration group
decrease in food intake compared with Tirzepatide (db/db mice [2]; equal dose (0.15 mg/kg s.c.), FIG. 10): significantly greater than that of the positive control group Tirzepatide
non-fasting blood glucose after the first administration (db/db mice [2]; high-dose group 0.5 mg/kg s.c., 24 h-72 h after administration): maintained in a relatively low range

From patent US12215133B2 (BrightGene Bio-Medical Technology Co., Ltd., priority 2021, dated 2025)
